{"source": "paper PMC12440886", "about": "“Inhibition of the oncogenic channel Kv10.1 by the antipsychotic drug penfluridol” (Frontiers in Pharmacology, 2025)", "key": {"[1]": {"biological_target": "T1, Kv10.1 (Homo sapiens, UniProt O95259)", "T1 construct": "gene KCNH1", "T1 sequence (O95259 1-989)": "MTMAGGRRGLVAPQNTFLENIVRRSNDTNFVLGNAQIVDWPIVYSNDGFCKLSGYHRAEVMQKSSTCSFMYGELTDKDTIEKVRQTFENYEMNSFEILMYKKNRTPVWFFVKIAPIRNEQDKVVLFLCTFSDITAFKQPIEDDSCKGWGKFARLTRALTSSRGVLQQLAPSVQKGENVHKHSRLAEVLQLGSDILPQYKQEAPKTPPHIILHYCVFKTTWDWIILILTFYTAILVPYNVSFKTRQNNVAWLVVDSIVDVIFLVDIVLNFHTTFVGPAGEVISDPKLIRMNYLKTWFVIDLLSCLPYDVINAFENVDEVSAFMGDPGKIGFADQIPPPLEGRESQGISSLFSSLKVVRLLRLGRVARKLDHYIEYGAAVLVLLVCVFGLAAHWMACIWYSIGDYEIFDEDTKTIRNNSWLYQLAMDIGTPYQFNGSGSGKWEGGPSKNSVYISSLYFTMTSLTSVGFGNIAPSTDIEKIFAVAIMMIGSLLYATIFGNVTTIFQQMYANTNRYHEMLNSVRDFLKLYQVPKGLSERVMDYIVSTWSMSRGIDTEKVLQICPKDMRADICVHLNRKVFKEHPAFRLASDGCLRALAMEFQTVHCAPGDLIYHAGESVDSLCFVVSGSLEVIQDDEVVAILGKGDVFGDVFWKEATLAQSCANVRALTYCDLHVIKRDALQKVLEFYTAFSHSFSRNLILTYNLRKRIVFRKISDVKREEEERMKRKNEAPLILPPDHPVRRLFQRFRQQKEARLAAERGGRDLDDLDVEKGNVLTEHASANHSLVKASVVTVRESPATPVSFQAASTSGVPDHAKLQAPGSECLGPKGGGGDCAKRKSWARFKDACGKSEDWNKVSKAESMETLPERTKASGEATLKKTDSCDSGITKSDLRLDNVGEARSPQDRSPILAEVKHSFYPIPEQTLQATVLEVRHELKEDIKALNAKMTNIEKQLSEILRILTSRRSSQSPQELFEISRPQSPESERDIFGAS", "experiment": "whole-cell patch-clamp, HEK293 cells stably expressing human Kv10.[…]", "type": "cell-based"}, "[2]": {"biological_target": "T1, Kv10.1", "experiment": "FLIPR membrane potential fluorescence assay in HEK-Kv10.[…] cells, single concentration ([…])", "type": "cell-based", "conditions": "read-out: % decrease in response amplitude at 100 μM"}}}
{"smiles": "OC1(c2ccc(Cl)c(C(F)(F)F)c2)CCN(CCCC(c2ccc(F)cc2)c2ccc(F)cc2)CC1", "note": "[PNFL, penfluridol]", "values": [{"measurement": "IC50", "setting": "[1]", "result": "2700 ± 300", "unit": "nM"}]}
{"smiles": "CN(C)C(=O)C(CCN1CCC(O)(c2ccc(Cl)cc2)CC1)(c1ccccc1)c1ccccc1", "note": "[LP, loperamide]", "values": [{"measurement": "inhibition at 100 µM", "setting": "[2]", "result": 46.1, "unit": "%"}]}
